Data on 30 compounds can be found in patent US8937078B2, “Quinazolinones as prolyl hydroxylase inhibitors” (Janssen Pharmaceutica NV, priority 2009, dated 2015).

In assay [1] the target is T1, human PHD2 (PHD2181-417) (Homo sapiens, UniProt Q9GZT9).
T1 construct: Smt (SUMO) tag (cleaved yes); made in house; host or cells: E. coli BL21 (pBAD vector)
Briefly: PHD enzymatic assay ([14C]-succinic acid production). The conditions noted are these: PHD2181-417, HIF-1α peptide 10 μM, average of results; read-out: Enzyme pIC50 (converted). Format: biochemical. In outline:
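Activity measured as [14C]-succinic acid formed from [5-14C]-2-oxoglutarate over 10 minutes, with peptide substrate at 10 μM, in Tris-HCl pH 7.5 buffer containing catalase, DTT and ascorbate. Unreacted oxoglutarate removed by DNP derivatisation; supernatant beta-counted.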

Assay [2] concerns Hep-3B cells. Briefly: Cellular assay: erythropoietin secretion in Hep-3B cells. Format: cell-based, human. The following applies: Homo sapiens, Hep3B, 100 μM compound, 24 hours, percent of EPO secretion relative to assay control compound 7-[(4-Chloro-phenyl)-(5-methyl-isoxazol-3-ylamino)-methyl]-quinolin-8-ol, read-out: Cellular % EPO Stimulation. A digest of the protocol: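 Hep-3B cells in DMEM with 10% FBS, treated 24 h after plating with compounds at 100 μM final for a further 24 h. Secreted EPO in supernatant measured by MSD electrochemiluminescence sandwich immunoassay with anti-EPO detection antibody.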

Structures are written as SMILES.

T1 sequence (Q9GZT9 181-417): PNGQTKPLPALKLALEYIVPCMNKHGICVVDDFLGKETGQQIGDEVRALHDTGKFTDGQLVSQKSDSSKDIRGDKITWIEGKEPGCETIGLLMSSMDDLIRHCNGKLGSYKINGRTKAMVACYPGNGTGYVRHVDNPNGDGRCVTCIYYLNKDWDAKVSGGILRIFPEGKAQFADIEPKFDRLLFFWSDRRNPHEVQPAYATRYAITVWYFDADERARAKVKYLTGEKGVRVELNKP

For `O=C(O)c1cnn(-c2nc3c4c(ccc3c(=O)[nH]2)CCCC4)c1` [Example 142, 1-(4-Oxo-3,4,7,8,9,10-hexahydro-benzo[h]quinazolin-2-yl)-1H-pyrazole-4-carboxylic acid], in assay [1], the IC50 was 251 nM. For the same compound, in assay [2], the Emax at 100 µM was 23%.
Consider `O=C(O)c1cnn(-c2nc3ccc(NCc4cccc(Cl)c4)cc3c(=O)[nH]2)c1` [Example 182, 1-[6-(3-Chloro-benzylamino)-4-oxo-3,4-dihydro-quinazolin-2-yl]-1H-pyrazole-4-carboxylic acid], for which, in assay [1], the IC50 is 25.1 nM. The Emax at 100 µM in assay [2] stood at 26%.
For `O=C(O)c1cnn(-c2nc3cc(Cl)c(Oc4cccc5c4CCCC5)cc3c(=O)[nH]2)c1` [Example 55, 1-[7-Chloro-4-oxo-6-(5,6,7,8-tetrahydro-naphthalen-1-yloxy)-3,4-dihydro-quinazolin-2-yl]-1H-pyrazole-4-carboxylic acid], in that order: 31.6 nM and 25%.
For `O=C(O)c1cnn(-c2nc3cc(Cl)c(Oc4cccc5ccccc45)cc3c(=O)[nH]2)c1` [Example 53, 1-[7-Chloro-6-(naphthalen-1-yloxy)-4-oxo-3,4-dihydro-quinazolin-2-yl]-1H-pyrazole-4-carboxylic acid], in that order: 31.6 nM and 45%.
For `O=C(O)c1cnn(-c2nc3cc(Cl)c([S+]([O-])C(F)(F)F)cc3c(=O)[nH]2)c1` (stereo not drawn) [Example 160, 1-(7-Chloro-4-oxo-6-trifluoromethanesulfinyl-3,4-dihydro-quinazolin-2-yl)-1H-pyrazole-4-carboxylic acid], in that order: 39.8 nM and 13%.
Turning to `COc1ccc2c(=O)[nH]c(-n3cc(C(=O)O)cn3)nc2c1` [Example 135, 1-(7-Methoxy-4-oxo-3,4-dihydro-quinazolin-2-yl)-1H-pyrazole-4-carboxylic acid], the IC50 in assay [1] was 79.4 nM. The Emax at 100 µM in assay [2] was 17%.
As for `CN(C)c1cccc2nc(-n3cc(C(=O)O)cn3)[nH]c(=O)c12` [Example 151, 1-(5-Dimethylamino-4-oxo-3,4-dihydro-quinazolin-2-yl)-1H-pyrazole-4-carboxylic acid], the IC50 in assay [1] was 631 nM. The Emax at 100 µM in assay [2] is 11%.
The like results for `Cc1cccc(C)c1Oc1cc2c(=O)[nH]c(-n3cc(C(=O)O)cn3)nc2cc1Cl` [Example 49, 1-[7-Chloro-6-(2,6-dimethyl-phenoxy)-4-oxo-3,4-dihydro-quinazolin-2-yl]-1H-pyrazole-4-carboxylic acid] were, in that order, 31.6 nM and 55%.
The like results for `O=C(O)c1cnn(-c2nc3ccc(Oc4cccc(F)c4)cc3c(=O)[nH]2)c1` [Example 34, 1-[6-(3-Fluoro-phenoxy)-4-oxo-3,4-dihydro-quinazolin-2-yl]-1H-pyrazole-4-carboxylic acid] were, in that order, 25.1 nM and 73%.
The like results for `CCOc1ccc2nc(-n3cc(C(=O)O)cn3)[nH]c(=O)c2c1` [Example 121, 1-(6-Ethoxy-4-oxo-3,4-dihydro-quinazolin-2-yl)-1H-pyrazole-4-carboxylic acid] were, in that order, 10 nM and 30%.
`O=C(O)c1cnn(-c2nc3cc(Sc4ccccc4)ccc3c(=O)[nH]2)c1` [Example 78, 1-(4-Oxo-7-phenylsulfanyl-3,4-dihydro-quinazolin-2-yl)-1H-pyrazole-4-carboxylic acid]: in assay [1], the IC50 is 39.8 nM. Also, in assay [2], the Emax at 100 µM worked out at 5%.
The like results for `O=C(O)c1cnn(-c2nc3c(Sc4ccccc4)cccc3c(=O)[nH]2)c1` [Example 113, 1-(4-Oxo-8-phenylsulfanyl-3,4-dihydro-quinazolin-2-yl)-1H-pyrazole-4-carboxylic acid] were, in that order, 200 nM and 17%.
Turning to `O=C(O)c1cnn(-c2nc3c4c(ccc3c(=O)[nH]2)OCCO4)c1` [Example 138, 1-(8-Oxo-2,3,7,8-tetrahydro-1,4-dioxa-5,7-diaza-phenanthren-6-yl)-1H-pyrazole-4-carboxylic acid], in assay [1], the IC50 was 251 nM. In assay [2], the Emax at 100 µM was 40%.
The like results for `Cc1cccc(-c2ccc3c(=O)[nH]c(-n4cc(C(=O)O)cn4)nc3c2)c1` [Example 189, 1-(4-Oxo-7-m-tolyl-3,4-dihydro-quinazolin-2-yl)-1H-pyrazole-4-carboxylic acid] were, in that order, 50.1 nM and 25%.
Regarding `O=C(O)c1cnn(-c2nc3ccc(NCc4c(F)cccc4F)cc3c(=O)[nH]2)c1` [Example 176, 1-[6-(2,6-Difluoro-benzylamino)-4-oxo-3,4-dihydro-quinazolin-2-yl]-1H-pyrazole-4-carboxylic acid], the IC50 in assay [1] was 39.8 nM. Further, the Emax at 100 µM in assay [2] worked out at 26%.
The like results for `COc1cccc2c(=O)[nH]c(-n3cc(C(=O)O)cn3)nc12` [Example 7, 1-(8-Methoxy-4-oxo-3,4-dihydro-quinazolin-2-yl)-1H-pyrazole-4-carboxylic acid] were, in that order, 158 nM and 25%.
The like results for `COc1cc2nc(-n3cc(C(=O)O)cn3)[nH]c(=O)c2cc1Oc1c(C)cccc1C` [Example 61, 1-[6-(2,6-Dimethyl-phenoxy)-7-methoxy-4-oxo-3,4-dihydro-quinazolin-2-yl]-1H-pyrazole-4-carboxylic acid] were, in that order, 20 nM and 86%.
For `O=C(O)c1cnn(-c2nc3ccc(Oc4c(Cl)cccc4Cl)cc3c(=O)[nH]2)c1` [Example 38, 1-[6-(2,6-Dichloro-phenoxy)-4-oxo-3,4-dihydro-quinazolin-2-yl]-1H-pyrazole-4-carboxylic acid], in that order: 20 nM and 91%.
For the compound `CS(=O)(=O)Nc1ccc2nc(-n3cc(C(=O)O)cn3)[nH]c(=O)c2c1` [Example 170, 1-(6-Methanesulfonylamino-4-oxo-3,4-dihydro-quinazolin-2-yl)-1H-pyrazole-4-carboxylic acid], the IC50 in assay [1] is 31.6 nM. The Emax at 100 µM in assay [2] turned out to be 15%.
The like results for `O=C(O)c1cnn(-c2nc3cc(F)c(C4CCCCC4)cc3c(=O)[nH]2)c1` [Example 110, 1-(6-Cyclohexyl-7-fluoro-4-oxo-3,4-dihydro-quinazolin-2-yl)-1H-pyrazole-4-carboxylic acid] were, in that order, 158 nM and 47%.
Consider `O=C(O)c1cnn(-c2nc3ccc(NCc4ccccc4Cl)cc3c(=O)[nH]2)c1` [Example 174, 1-[6-(2-Chloro-benzylamino)-4-oxo-3,4-dihydro-quinazolin-2-yl]-1H-pyrazole-4-carboxylic acid], for which the IC50 in assay [1] is 20 nM. Moreover, in assay [2], the Emax at 100 µM worked out at 24%.
The like results for `O=C(O)c1cnn(-c2nc3ccc(SC(F)(F)F)cc3c(=O)[nH]2)c1` [Example 156, 1-(4-Oxo-6-trifluoromethylsulfanyl-3,4-dihydro-quinazolin-2-yl)-1H-pyrazole-4-carboxylic acid] were, in that order, 31.6 nM and 19%.
For `CN1CCN(c2ccc3nc(-n4cc(C(=O)O)cn4)[nH]c(=O)c3c2)CC1` [Example 103, 1-[6-(4-methyl-piperazin-1-yl)-4-oxo-3,4-dihydro-quinazolin-2-yl]-1H-pyrazole-4-carboxylic acid], in that order: 63.1 nM and 30%.
On to `COc1cccc(Oc2ccc3nc(-n4cc(C(=O)O)cn4)[nH]c(=O)c3c2)c1` [Example 31, 1-[6-(3-Methoxy-phenoxy)-4-oxo-3,4-dihydro-quinazolin-2-yl]-1H-pyrazole-4-carboxylic acid], for which the IC50 in assay [1] was 20 nM. Also, the Emax at 100 µM in assay [2] stood at 129%.
For `O=C(O)c1cnn(-c2nc3cc(-c4ccccc4)ccc3c(=O)[nH]2)c1` [Example 184, 1-(4-Oxo-7-phenyl-3,4-dihydro-quinazolin-2-yl)-1H-pyrazole-4-carboxylic acid], in that order: 79.4 nM and 12%.
The like results for `COc1ccc(-c2ccc3nc(-n4cc(C(=O)O)cn4)[nH]c(=O)c3c2)cc1` [Example 200, 1-[6-(4-Methoxy-phenyl)-4-oxo-3,4-dihydro-quinazolin-2-yl]-1H-pyrazole-4-carboxylic acid] were, in that order, 15.8 nM and 118%.
The like results for `O=C(O)c1cnn(-c2nc3ccc(-c4ccc5cc[nH]c5c4)cc3c(=O)[nH]2)c1` [Example 108, 1-[6-(1H-Indol-6-yl)-4-oxo-3,4-dihydro-quinazolin-2-yl]-1H-pyrazole-4-carboxylic acid] were, in that order, 25.1 nM and 85%.
On to `O=C(O)c1cnn(-c2nc3cc(Sc4ccccc4Cl)ccc3c(=O)[nH]2)c1` [Example 80, 1-[7-(2-Chloro-phenylsulfanyl)-4-oxo-3,4-dihydro-quinazolin-2-yl]-1H-pyrazole-4-carboxylic acid], for which, in assay [1], the IC50 was 31.6 nM. Besides, the Emax at 100 µM in assay [2] turned out to be 5%.
For `O=C(O)c1cnn(-c2nc3ccc(-c4cccc(OC(F)(F)F)c4)cc3c(=O)[nH]2)c1` [Example 205, 1-[4-Oxo-6-(3-trifluoromethoxy-phenyl)-3,4-dihydro-quinazolin-2-yl]-1H-pyrazole-4-carboxylic acid], in that order: 25.1 nM and 58%.
With `O=C(O)c1cnn(-c2nc3cc(Cl)c(OC(F)(F)F)cc3c(=O)[nH]2)c1` [Example 22, 1-(7-Chloro-4-oxo-6-trifluoromethoxy-3,4-dihydro-quinazolin-2-yl)-1H-pyrazole-4-carboxylic acid], the IC50 in assay [1] was 31.6 nM. Besides, in assay [2], the Emax at 100 µM came to 61%.
